Like-named read-outs stand apart in the source and are kept apart here.
What was measured:
[1] = test system: activated PBMCs; experiment: β-chemokine levels in activated PBMCs cultured with Vitamin E; assay type: cell-based, human; details: day 6 after addition of Vitamin E, IL-2, FIG. 12
Experimental: B-chemokines levels were measured in activated PBMCs cuftured in the presence of Vitamin E, an antioxidant reported to induce G1 cycle arrest. PBMCs from a healthy donor were activated under the presence of the indicated stimuli for 72 h. Activated cells were cultured in the presence of IL-2 and Vitamin E. Supernatants were evaluated for β-chemokine content on day 6 after addition of Vitamin E. Cell viability was measured by MTT assay.

[2] = test system: resting CD4 T cells; experiment: Cell viability / proliferation of patients' CD4 T cell cultures (trypan blue); assay type: cell-based, human; details: 5 μg/ml VE, days 7 or 14; data not shown
Experimental: (§1) Blood (50 ml) was drawn from 10 patients on antiretroviral therapy, whose viral load were <400 copies/ml and whose CD4 counts were >300/μl. Resting CD4 T cells were purified by negative selection using antibody-labeled magnetic beads (Dynal, Lake Success, N.Y.). Purified cells were activated by co-culture with γ-irradiated PBMCs from normal donors in the presence of 1 μg/ml anti-CD3 antibody (Coulter, Miami, Fla.) and 100 units/ml rhIL-2 (Roche, Indianapolis, Ind.). Cultures were set up in the absence or continuous presence of 5 μg/ml of VE (Vitamin E succinate, Sigma, St. Louis, Mo.), with medium replenishment every 3 or 4 days. Cultures were maintained for 14 days. Virus production was monitored by measuring p24 antigen (NEN, Boston, Mass.) in the culture supernatants on days 7 and 14. Cell viability was measured by trypan blue staining.

[3] = test system: HIV-1; experiment: HIV-1 production upon activation of patients' resting CD4 T cells (p24 ELISA); assay type: cell-based; details: 5 μg/ml VE
Experimental: HIV-1 gene expression on latently infected resting T cells is dependent on host transcriptional factors, such as NF-κB, that are induced on activated cells. In the present study we have evaluated the in vitro effect of adding Vitamin E (VE) to cultures of patients' resting CD4 T cells under conditions of cellular activation that promote virus expression.
as §1

[4] = test system: HIV-1 ADA; experiment: Antiviral activity of RAPA in monocyte-derived macrophages (RT assay); assay type: cell-based
Experimental: (§2) Cultures of peripheral blood mononuclear cells (PBMCs) and monocyte-derived macrophages (MDMs) were performed on normal donors as described (Poli, et al. 1993, Perno, et al., 1993). PBMCs were maintained in the presence of 100 units/ml rhIL-2 (Roche Molecular Biochemicals). Cell viability was determined by Trypan blue staining or by the MTT assay (Roche Molecular Biochemicals). RAPA was purchased from Calbiochem. The CCR5 antagonist TAK-779 was obtained from the National Institutes of Health AIDS Research and Reference Reagent Program (Rockville, Md.). CCR5 surface expression was measured on PBMCs cultured in the presence of IL-2 for 7-10 days. Staining was done as described (Lane, et al. 1999), but using CCR5 mAb 182 (R & D Systems). Background staining was determined by adding an isotype-matched control (IgG2b, R&D Systems) instead of the anti-CCR5 mAb. Data were acquired by using a FACS Calibur flow cytometer (BD Biosciences) and analyzed by using FLOWJO (Tree Star, San Carlos, Calif.).
(§3) For infection of PBMCs, fresh donor PBMCs were cultured for 7 days in medium containing IL-2. On day 7, cells were exposed to the virus for 3 h. Nonadsorbed virus was removed by washing cells with PBS three times. Infected cells were cultured in IL-2 medium. Infection of MDMs was carried out as described before (Pemo, et al. 1993). Unless otherwise indicated, PBMCs were infected by using a moi of 0.001, and monocyte-derived macrophages (MDMs) were infected by using a moi of 0.002. Virus growth was monitored in culture supernatants by measuring p24 antigen levels by ELISA (NEN) or by measuring viral RT activity in an RT assay (Willey, et al., 1988).
(§4) On day 5, cells were infected with HIV-1 ADA. Infected cells were cultured in the presence of RAPA for an additional 14 days. Virus production was measured on the culture supernatants on days 7, 10, and 14 after infection.
In the above-described experiment, monocytes had been pretreated with RAPA during the 5-day differentiation period. To control for the possible interference of RAPA with the process of monocyte differentiation, a new infection experiment in which RAPA was not present during the 5-day monocyte differentiation period was designed. To this end, fresh monocytes were cultured for 5 days in the absence of RAPA. On day 5, cells were infected with HIV-1 ADA and then exposed to RAPA.

[5] = test system: HIV-1 IIIb; experiment: Antiviral activity of RAPA in PBMCs (p24); assay type: cell-based; details: Human immunodeficiency virus 1, IIIB, PBMC
Experimental: (§5) The following viruses were used in infection experiments, including HIV-1 IIIb, HIV-1 ADA, HIV-1 BaL, HIV-1 JRFL, HIV-1 JRCSF, and HIV-1 SF162. HIV-1 IIIb is a T cell line-adapted lab strain that uses CXCR4 for entry into cells, whereas the rest are isolates that use CCR5.
as §3
(§6) The antiviral activity of RAPA was assayed in PBMCs that had been cultured in the presence of RAPA for 7 days before infection. Cells were infected with the X4 HIV-1 IIIb and the R5 HIV-1 ADA strains. Infected cells were cultured in the presence of RAPA (same concentration as during pretreatment) for 7 additional days, during which time virus replication and cell viability were measured. […]

[6] = test system: five R5 strains of HIV-1; experiment: Antiviral activity of low concentrations of RAPA in PBMCs, panel of R5 strains; assay type: cell-based; details: Human immunodeficiency virus 1, PBMC
Experimental: as §5, §3
RAPA at 0.01 nM inhibited R5 HIV-1 by 10-64% depending on the strains, whereas 0.1 nM RAPA inhibited virus replication by 15-85%. At 1 nM RAPA, all R5 viruses were inhibited by >90%.

[7] = test system: MDMs; experiment: Cell viability of MDMs (MTT assay); assay type: cell-based, human; details: end of experiment (day 14)
Experimental: as §2, §4

[8] = test system: HIV-1 SF 162; experiment: Antiviral activity of RAPA in monocyte-derived macrophages; assay type: cell-based; details: Human immunodeficiency virus 1, Macrophage; 0.01 nM RAPA; data not shown
[9] = test system: PBMCs; experiment: PBMC proliferation and viability (MTT assay)
Experimental: as §2
Donor PBMCs were cultured in the presence of IL-2 and RAPA (10-fold serial dilutions, from 10^4 to 0.01 nM).

[10] = Tolerability of Rapamycin in healthy volunteers; assay type: in vivo, human; details: 5 healthy volunteers, 2 mg/day after 6 mg loading dose, 14 days
Experimental: HIV-1 has been shown in most instances to use the chemokine receptor, CCR5, as a co-receptor for entry into macrophages and CD4 lymphocytes. The natural ligands for the CCR5 co-receptor are proteins called β-Chemokines. […] To assess the activity of β-Chemokine production levels and its effects on CCR5 receptors in vivo an open-labeled, non-randomized observational trial was performed in which 5 healthy volunteers were given 2 mg/day of Rapamycin, following a 6 mg loading dose, for 14 days. Peripheral blood for determining β-Chemokines was obtained at the screening visit, days 7 and 14 of the Rapamycin dosing, and at day 28 (which was two weeks following the last dose of Rapamycin). All 5 subjects completed the study and Rapamycin was well-tolerated.

[11] = renal transplant recipients, cited from earlier work
[12] = test system: HIV-1 ADA; experiment: Antiviral activity of RAPA in PBMCs (p24); assay type: cell-based; details: Human immunodeficiency virus 1, PBMC
Experimental: as §5, §3, §6

[13] = test system: PBMCs; experiment: β-chemokine levels (ELISA) in supernatants of IL-2 PBMC cultures with RAPA; assay type: cell-based, human
Experimental: RAPA was purchased from Calbiochem.
Levels of the β-chemokines MIP-1α, MIP-1β and RANTES were measured in culture supernatants by using ELISA kits (R & D Systems).
We next measured levels of the CCR5 ligands MIP-1α, MIP-1β, and RANTES in supernatants of RAPA-treated PBMC cultures. PBMCs from four donors were cultured in the presence of IL-2 and RAPA for 10 days. […] Among the different donors, RAPA-treated cultures contained 6-39-fold higher levels of MIP-1α than untreated cultures. Similarly, MIP-1β levels were increased 17-47-fold in the presence of RAPA as compared with untreated controls. […] Chemokine results obtained in two of the donors, showing disparity of RANTES levels in the presence of RAPA, are depicted in FIG. 8A.
The effect of RAPA on MIP-1β protein levels provided information regarding the mechanism by which RAPA increases β-chemokine levels. To this end, stimulated PBMCs from two normal donors and from a CCR5-null donor were cultured in the presence of RAPA as in previous experiments. MIP-1β levels in supernatants were evaluated on day 10. Representative results obtained in one of the normal donors are shown next to the results obtained on the CCR5-null donor (FIG. 8B).
PBMCs from a healthy donor were cultured in the presence of IL-2 and Rapamycin. On day 7, chemokines content in the supernatant was measured by ELISA and cell viability was determined by the MTT assay.

[14] = IL-2 and RAPA for 10 days, four donors

Q: For `Cc1c(C)c2c(c(C)c1O)CC[C@@](C)(CCC[C@H](C)CCC[C@H](C)CCCC(C)C)O2` [Vitamin E, alpha-tocopherol], which “levels of β-chemokines” value [1] is on record?
A: increased levels of β-chemokines

Q: What about the “cell viability and cell proliferation” value [2] of the same molecule?
A: Neither cell viability nor cell proliferation was affected

Q: What about the “virus production, mean Log p24” value ([3]; day 14, 9 patients, log of p24 pg/ml, absence of VE 3.58, p=0.016) of the same molecule?
A: 2.06

Q: What about the “cultures with positive virus isolation” value ([3]; day 14, untreated 9/10) of the same molecule?
A: 7/10

Q: With `CO[C@H]1C[C@@H]2CC[C@@H](C)[C@@](O)(O2)C(=O)C(=O)N2CCCC[C@H]2C(=O)O[C@H]([C@H](C)C[C@@H]2CC[C@@H](O)[C@H](OC)C2)CC(=O)[C@H](C)/C=C(\C)[C@@H](O)[C@@H](OC)C(=O)[C@H](C)C[C@H](C)/C=C/C=C/C=C/1C` [RAPA, rapamycin] as the molecule, how does the “inhibition of virus replication” value ([4]; 1 nM RAPA added after infection, no RAPA during differentiation, day 14, two donors) read?
A: ~80%

Q: What about the inhibition at 0.001 µM ([4]; Human immunodeficiency virus 1, Macrophage, 336 h, 1 nM RAPA added after infection, no RAPA during differentiation, day 14, two donors, read-out: inhibition of virus replication) of the same molecule?
A: ~60%

Q: And the inhibition at 10 pM ([4]; Human immunodeficiency virus 1, Macrophage, 0.01 nM RAPA, data not shown)?
A: 64%

Q: What about the “inhibition of virus production” value ([4]; RAPA 0.1-100 nM, day 14, monocytes pretreated 5 days) of the same molecule?
A: 70-95%

Q: And the inhibition at 0.01 µM ([5]; 10 nM RAPA (range of 5-25%))?
A: 13.5%

Q: And the inhibition at 0.1 µM ([5]; 100 nM RAPA (range 29-60%))?
A: 32%

Q: And the inhibition at 10 pM ([6]; read-out: inhibition of R5 HIV-1)?
A: 10 to 64%

Q: What about the inhibition at 0.001 µM ([6]; read-out: inhibition of all R5 viruses) of the same molecule?
A: > 90%

Q: What about the inhibition at 0.0001 µM ([6]; read-out: inhibition of virus replication (R5 HIV-1)) of the same molecule?
A: 15 to 85%

Q: And the “RAPA concentrations at which cell viability was reduced” value [7]?
A: > 10 nM

Q: And the inhibition at 10 pM [8]?
A: 45%

Q: And the “drug concentrations at which reduced proliferation was detected” value ([9]; IL-2, MTT assay on day 7)?
A: ≥ 1 nM

Q: And the “drug concentrations at which drug toxicity was observed” value ([9]; data not shown)?
A: above 1 nM

Q: And the tolerability [10]?
A: well-tolerated

Q: What about the therapeutic through levels ([11]; daily 2 mg) of the same molecule?
A: 9.3 ± 4.4 nM

Q: And the therapeutic through levels ([11]; daily 5 mg)?
A: 18.9 ± 8 nM

Q: And the inhibition at 0.01 µM ([12]; 10 nM RAPA, average of seven experiments (range of 88-97%))?
A: 91%

Q: And the inhibition at 0.1 µM ([12]; 100 nM RAPA, seven experiments (range of 92-99%))?
A: 94%

Q: And the MIP-1β levels increase ([13]; CCR5-null donor, day 10)?
A: 1.2 fold

Q: What about the “MIP-1α levels, RAPA-treated versus untreated cultures” value [13, 14] of the same molecule?
A: 6-39 fold

Q: What about the “MIP-1β levels increase compared with untreated controls” value [13, 14] of the same molecule?
A: 17-47 fold

Q: What about the “MIP-1β protein increase compared with RAPA-untreated control” value ([13]; normal donor, day 10) of the same molecule?
A: 9.3 fold

From US20060099170A1, “Compositions for inducing increased levels of beta-chemokines and methods of use therefor” (priority 2002, published 2006)
